# Data as given in article PMC8964499, “An Efficient Approach for the Design and Synthesis of Antimicrobial Peptide-Peptide Nucleic Acid Conjugates” (Frontiers in Chemistry, 2022).
# Values joined by “and” are separate entries in the source; they are usually repeats but may differ in a detail not shown here. Equal entries are not always repeated. Non-standard residues stand in square brackets, D forms with d. Residues, ends and D or L forms follow the SMILES beside them. *: point of attachment. X1 = N#Cc1cc(C(=O)*)ccn1; AEEA = NCCOCCOCC(=O)O; Ahx = NCCCCCC(=O)O
# Tests used:
# A. baumannii 5075 = conditions: 40 μM per disk; for Zone of inhibition diameter, Ab 5075: disc diffusion (EUCAST), inoculum McFarland 0.5 (~10^8 CFU/ml), 18 h at 37°C, volume per disk corrected by Mw equivalent to 40 ug of LASP-072
# Protocol: (§1) According to the EUCAST guidelines ([Eucast, E.C.O.a.S.T., 2021]), the inoculum was standardized in sterile saline to the density of a McFarland 0.50 ± 0.02 standard, corresponding to ∼10^8 CFU/ml of each isolate. The freshly prepared bacterial suspension was evenly inoculated onto agar plates and disks containing 40 μM of peptide-PNA conjugates were applied within 15 min. The diameter of inhibition zones was measured after incubation for 18 h at 37°C. Polymyxin B (40 μM/disk) was employed as the control.
# (§2) The selected peptide sequences are known for their antimicrobial activity ([Le et al., 2017]). Therefore, we evaluated the antimicrobial activity of synthesized peptide-PNA conjugates using the Disc Diffusion Assay (DDA) against a panel of MDR Gram-negative bacteria consisting of P. aeruginosa, A. baumannii, K. pneumoniae, E. coli, including the isolates highly polymyxin-resistant A. baumannii 5075R, and A. baumannii 5075D (Figure 4 and Supplementary Table S1). […] During the synthesis of the next set of peptide-PNA conjugates, we switched the direction of the conjugation handles to investigate the impact on the efficiency of conjugation. […]
# Figure S11: The inhibition zone (mm) of all peptides, PNA and peptide-PNA conjugates
# against A. baumannii 5075 at a concentration of 40 μM. […]
# A. baumannii 5075R = conditions: polymyxin-resistant isolate; disc diffusion (EUCAST), 40 μM per disk, inoculum McFarland 0.5 (~10^8 CFU/ml), 18 h at 37°C; volume per disk corrected by Mw equivalent to 40 ug of LASP-072
# Protocol: as §1, §2
# Figure S12: The inhibition zone (mm) of all peptides, PNA and peptide-PNA conjugates
# against A. baumannii 5075R at a concentration of 40 μM.
# P. aeruginosa ATCC 27853 = conditions: disc diffusion (EUCAST), 40 μM per disk, inoculum McFarland 0.5 (~10^8 CFU/ml), 18 h at 37°C; volume per disk corrected by Mw equivalent to 40 ug of LASP-072
# Protocol: as §1
# (§3) The selected peptide sequences are known for their antimicrobial activity ([Le et al., 2017]). Therefore, we evaluated the antimicrobial activity of synthesized peptide-PNA conjugates using the Disc Diffusion Assay (DDA) against a panel of MDR Gram-negative bacteria consisting of P. aeruginosa, A. baumannii, K. pneumoniae, E. coli, including the isolates highly polymyxin-resistant A. baumannii 5075R, and A. baumannii 5075D (Figure 4 and Supplementary Table S1). […] During the synthesis of the next set of peptide-PNA conjugates, we switched the direction of the conjugation handles to investigate the impact on the efficiency of conjugation.
# Figure S7: The inhibition zone (mm) of all peptides, PNA and peptide-PNA conjugates
# against P. aeruginosa ATCC 27853 at a concentration of 40 μM. […]
# A. baumannii 5075D = type: cell-based, Acinetobacter baumannii; conditions: polymyxin-dependent resistant isolate; disc diffusion (EUCAST), 40 μM per disk, inoculum McFarland 0.5 (~10^8 CFU/ml), 18 h at 37°C; volume per disk corrected by Mw equivalent to 40 ug of LASP-072
# Protocol: as §1
# (§4) The selected peptide sequences are known for their antimicrobial activity ([Le et al., 2017]). Therefore, we evaluated the antimicrobial activity of synthesized peptide-PNA conjugates using the Disc Diffusion Assay (DDA) against a panel of MDR Gram-negative bacteria consisting of P. aeruginosa, A. baumannii, K. pneumoniae, E. coli, including the isolates highly polymyxin-resistant A. baumannii 5075R, and A. baumannii 5075D (Figure 4 and Supplementary Table S1). […] Therefore, we further synthesized 10-mer PNAs targeting four bacterial essential genes anti-rpoA LASP-095 ([Abushahba et al., 2016]), anti-murA LASP-096 ([Goh et al., 2009]; [Mondhe et al., 2014]), anti-acpP LASP-097 ([Hansen et al., 2016]), and anti-rpoD LASP-119 ([Bai et al., 2012]; [Alajlouni and Seleem, 2013]). During the synthesis of the next set of peptide-PNA conjugates, we switched the direction of the conjugation handles to investigate the impact on the efficiency of conjugation. Here, PNAs were synthesized with an N-terminal CINA moiety (LASP-095, 096, 097 and 119, Table 1) and a polymyxin analogue (LASP-072, Table 1) was synthesized containing an N-terminal cysteine residue (Supplementary Figure S3).
# Table S1: Inhibition zone (mm) for peptide, PNA, and peptide-PNA conjugates
# Zone of inhibition diameter (mm)
# Mw equivalent Pa Ab Kp Ab Ab
# A. baumannii ATCC 17978 = conditions: disc diffusion (EUCAST), 40 μM per disk, inoculum McFarland 0.5 (~10^8 CFU/ml), 18 h at 37°C; volume per disk corrected by Mw equivalent to 40 ug of LASP-072
# Protocol: as §1, §2
# Figure S8: The inhibition zone (mm) of all peptides, PNA and peptide-PNA conjugates
# against A. baumannii ATCC 17978 at a concentration of 40 μM. […]
# [1] = tested on: Klebsiella pneumoniae ATCC 700721; conditions: disc diffusion (EUCAST), 40 μM per disk, inoculum McFarland 0.5 (~10^8 CFU/ml), 18 h at 37°C; volume per disk corrected by Mw equivalent to 40 ug of LASP-072
# Protocol: as §1, §2
# Figure S9: The inhibition zone (mm) of all peptides, PNA and peptide-PNA conjugates
# against Klebsiella pneumoniae ATCC 700721 at a concentration of 40 μM.
# E. coli DH5α = conditions: disc diffusion (EUCAST), 40 μM per disk, inoculum McFarland 0.5 (~10^8 CFU/ml), 18 h at 37°C; volume per disk corrected by Mw equivalent to 40 ug of LASP-072
# Protocol: as §1, §3
# Figure S10: The inhibition zone (mm) of all peptides, PNA and peptide-PNA conjugates
# against E. coli DH5α at a concentration of 40 μM. […]
# [2] = tested on: panel of MDR Gram-negative bacteria consisting of P. aeruginosa, A. baumannii, K. pneumoniae, E. coli; experiment: Disc diffusion assay, statements for the whole panel; type: cell-based; conditions: 40 μM per disk, 18 h at 37°C, statement of the text for the whole panel
# Protocol: as §1, §4
compound,measurement,setting,value
N#Cc1cc(C(=O)NCCCC[C@H](NC(=O)COCCOCCNC(=O)[C@H](CCCNC(=N)N)NC(=O)CCCCCNC(=O)[C@H](CCCNC(=N)N)NC(=O)[C@H](CCCNC(=N)N)NC(=O)CCCCCNC(=O)[C@H](CCCNC(=N)N)NC(=O)[C@H](CCCNC(=N)N)NC(=O)CCCCCNC(=O)[C@H](CCCNC(=N)N)NC(=O)[C@H](CCCNC(=N)N)NC(=O)CCCCCNC(=O)[C@@H](N)CCCNC(=N)N)C(N)=O)ccn1 [LASP-054] (H-R[Ahx]RR[Ahx]RR[Ahx]RR[Ahx]R[AEEA]K(X1)-NH2),"Zone of inhibition diameter, Ab 5075",A. baumannii 5075,8 mm
same,"Zone of inhibition diameter, Ab 5075 R",A. baumannii 5075R,8 mm
same,"Zone of inhibition diameter, Pa ATCC 27853",P. aeruginosa ATCC 27853,0 mm
same,"Zone of inhibition diameter, Ab 5075 D",A. baumannii 5075D,9 mm
same,"Zone of inhibition diameter, Ab ATCC 17978",A. baumannii ATCC 17978,9 mm
same,"Zone of inhibition diameter, Kp ATCC 700721",[1],8 mm
same,"Zone of inhibition diameter, E. coli DH5α",E. coli DH5α,9 mm
CINA-PEG-Gly-Lys-Pro-Arg-Pro-Tyr-Ser-Pro-Arg-Pro-Thr-Ser-His-Pro-Arg-Pro-Ile-Arg-Arg-NH2 [LASP-077],"Zone of inhibition diameter, Ab 5075",A. baumannii 5075,0 mm
same,"Zone of inhibition diameter, Ab 5075 R",A. baumannii 5075R,0 mm
same,"Zone of inhibition diameter, Pa ATCC 27853",P. aeruginosa ATCC 27853,0 mm
same,"Zone of inhibition diameter, Ab 5075 D",A. baumannii 5075D,0 mm
same,"Zone of inhibition diameter, Ab ATCC 17978",A. baumannii ATCC 17978,0 mm
same,"Zone of inhibition diameter, Kp ATCC 700721",[1],0 mm
same,"Zone of inhibition diameter, E. coli DH5α",E. coli DH5α,0 mm
CINA-PEG-Gly-Lys-Pro-Arg-Pro-Tyr-Ser-Pro-Arg-Pro-Thr-Ser-His-Pro-Arg-Pro-Ile-Arg-Arg-NH2 [LASP-084],Bacterial growth in the presence of the conjugate (polymyxin-dependent phenotype),"A. baumannii 5075; disc diffusion, result in words",greater bacterial growth
same,"Zone of inhibition diameter, Ab 5075 R",A. baumannii 5075R,0 mm
same,"Zone of inhibition diameter, Pa ATCC 27853",P. aeruginosa ATCC 27853,0 mm
same,"Zone of inhibition diameter, Ab 5075 D",A. baumannii 5075D,7 mm and 8 mm
same,"Zone of inhibition diameter, Ab ATCC 17978",A. baumannii ATCC 17978,0 mm
same,"Zone of inhibition diameter, Kp ATCC 700721",[1],0 mm
same,"Zone of inhibition diameter, E. coli DH5α",E. coli DH5α,8 mm
CINA-PEG-OctGly-Dab-Thr-Dab-Dab ^b -Dab-D-Phe-Leu-Dab-Dab-Thr ^b (lariat or depsi) [LASP-026],"Zone of inhibition diameter, Ab 5075",A. baumannii 5075,13 mm
same,"Zone of inhibition diameter, Ab 5075 R",A. baumannii 5075R,11 mm
same,"Zone of inhibition diameter, Pa ATCC 27853",P. aeruginosa ATCC 27853,14 mm
same,"Zone of inhibition diameter, Ab 5075 D",A. baumannii 5075D,9 mm
same,"Zone of inhibition diameter, Ab ATCC 17978",A. baumannii ATCC 17978,13 mm
same,"Zone of inhibition diameter, Kp ATCC 700721",[1],13 mm
same,"Zone of inhibition diameter, E. coli DH5α",E. coli DH5α,15 mm
CINA-PEG-Val-Cys ^c -Lys-Arg-trp-Lys-Lys-Trp-Lys-Arg-Lys-Trp-Lys-Lys-Trp-Cys ^c -Val-NH2 (sidechain bridge or staple) [LASP-086],"Zone of inhibition diameter, Ab 5075",A. baumannii 5075,0 mm
same,"Zone of inhibition diameter, Ab 5075 R",A. baumannii 5075R,0 mm
same,Diameter of inhibition zones over the panel of bacteria,[2],No zone of bacterial growth inhibition
same,"Zone of inhibition diameter, Pa ATCC 27853",P. aeruginosa ATCC 27853,0 mm
same,"Zone of inhibition diameter, Ab 5075 D",A. baumannii 5075D,0 mm
same,"Zone of inhibition diameter, Ab ATCC 17978",A. baumannii ATCC 17978,0 mm
same,"Zone of inhibition diameter, Kp ATCC 700721",[1],0 mm
same,"Zone of inhibition diameter, E. coli DH5α",E. coli DH5α,0 mm
CINA-PEG-Val-Cys ^d -Lys-Arg-trp-Lys-Lys-Trp-Lys-Arg-Lys-Trp-Lys-Lys-Trp-Cys ^d -Val-NH2 (disulfide) [LASP-088],"Zone of inhibition diameter, Ab 5075",A. baumannii 5075,7 mm and 8 mm
same,"Zone of inhibition diameter, Ab 5075 R",A. baumannii 5075R,0 mm
same,"Zone of inhibition diameter, Pa ATCC 27853",P. aeruginosa ATCC 27853,0 mm
same,"Zone of inhibition diameter, Ab ATCC 17978",A. baumannii ATCC 17978,0 mm
same,"Zone of inhibition diameter, Kp ATCC 700721",[1],0 mm
same,"Zone of inhibition diameter, E. coli DH5α",E. coli DH5α,8 mm
Cys-PEG-OctGly-Dab-Thr-Dab-Dab ^b -Dab-D-Phe-Leu-Dab-Dab-Thr ^b (lariat or depsi) [LASP-130],"Zone of inhibition diameter, Ab 5075",A. baumannii 5075,10 mm
same,"Zone of inhibition diameter, Ab 5075 R",A. baumannii 5075R,7 mm
same,Diameter of inhibition zones over the panel of bacteria,[2],11–14 mm
same,"Zone of inhibition diameter, Pa ATCC 27853",P. aeruginosa ATCC 27853,9 mm
same,"Zone of inhibition diameter, Ab 5075 D",A. baumannii 5075D,0 mm
same,"Zone of inhibition diameter, Ab ATCC 17978",A. baumannii ATCC 17978,9 mm
same,"Zone of inhibition diameter, Kp ATCC 700721",[1],9 mm
same,"Zone of inhibition diameter, E. coli DH5α",E. coli DH5α,12 mm
H-Arg-Acp-Arg-Arg-Acp-Arg-Arg-Acp-Arg-Arg-Acp-Arg-PEG-Lys (CINA)-NH2 [LASP-058],"Zone of inhibition diameter, Ab 5075",A. baumannii 5075,0 mm
same,"Zone of inhibition diameter, Ab 5075 R",A. baumannii 5075R,0 mm
same,Diameter of inhibition zones over the panel of bacteria,[2],No zone of bacterial growth inhibition
same,"Zone of inhibition diameter, Pa ATCC 27853",P. aeruginosa ATCC 27853,0 mm
same,"Zone of inhibition diameter, Ab 5075 D",A. baumannii 5075D,0 mm
same,"Zone of inhibition diameter, Ab ATCC 17978",A. baumannii ATCC 17978,0 mm
same,"Zone of inhibition diameter, Kp ATCC 700721",[1],0 mm
same,"Zone of inhibition diameter, E. coli DH5α",E. coli DH5α,0 mm
